According to ChEMBL document CHEMBL5360570, “Discovery of pyrazolo[3,4-b]pyridine derivatives as novel and potent Mps1 inhibitors for the treatment of cancer” (Eur J Med Chem, 2023):

How the values were obtained:
ALK-TPM1 (Homo sapiens) = ALK-TPM1 (Homo sapiens) (UniProt Q9UM73+P09493); test: Inhibition of ALK-TPM1 (unknown origin) assessed as residual activity at 1 uM relative to control; type: protein assay
[1] = biological target: Serine/threonine-protein kinase MARK1 (Homo sapiens) (UniProt Q9P0L2); test: Inhibition of MARK1 (unknown origin) assessed as residual activity at 1 uM relative to control
[2] = AUC (0 to infinity) in Sprague-Dawley rat at 10 mg/kg, po measured upto 24 hrs by LC-MS/MS analysis; type: ADME, organism-based; parameters: dose 10 mg/kg, time < 24 hrs, route po; conditions: in vivo
[3] = biological target: Tyrosine-protein kinase Fes/Fps (Homo sapiens) (UniProt P07332); test: Inhibition of FES (unknown origin) assessed as residual activity at 1 uM relative to control
[4] = biological target: Tyrosine-protein kinase JAK3 (Homo sapiens) (UniProt P52333); test: Inhibition of JAK3 (unknown origin) assessed as residual activity at 1 uM relative to control
[5] = biological target: NPM/ALK (Nucleophosmin/ALK tyrosine kinase receptor) (Homo sapiens) (UniProt Q9UM73+P06748); test: Inhibition of ALK-NPM1 (unknown origin) assessed as residual activity at 1 uM relative to control; type: protein assay
[6] = biological target: NUAK family SNF1-like kinase 1 (Homo sapiens) (UniProt O60285); test: Inhibition of ARK5 (unknown origin) assessed as residual activity at 1 uM relative to control
[7] = Metabolic stability in human liver microsome assessed as parent compound remaining preincubated for 10 mins followed by NADPH addition and measured at 15 mins by LC-MS/MS analysis; type: ADME; conditions: liver microsomes, time 25 min, read-out: Stability
[8] = biological target: Serine/threonine-protein kinase SIK2 (Homo sapiens) (UniProt Q9H0K1); test: Inhibition of SIK2 (unknown origin) assessed as residual activity at 1 uM relative to control
ALK-TFG (Homo sapiens) [9] = biological target: T1, ALK-TFG (Homo sapiens) (UniProt Q9UM73+Q92734); test: Inhibition of ALK-TFG (Tex4Aex20) (unknown origin) assessed as residual activity at 1 uM relative to control; type: protein assay
T1 sequence (Q92734 whole entry, looked up): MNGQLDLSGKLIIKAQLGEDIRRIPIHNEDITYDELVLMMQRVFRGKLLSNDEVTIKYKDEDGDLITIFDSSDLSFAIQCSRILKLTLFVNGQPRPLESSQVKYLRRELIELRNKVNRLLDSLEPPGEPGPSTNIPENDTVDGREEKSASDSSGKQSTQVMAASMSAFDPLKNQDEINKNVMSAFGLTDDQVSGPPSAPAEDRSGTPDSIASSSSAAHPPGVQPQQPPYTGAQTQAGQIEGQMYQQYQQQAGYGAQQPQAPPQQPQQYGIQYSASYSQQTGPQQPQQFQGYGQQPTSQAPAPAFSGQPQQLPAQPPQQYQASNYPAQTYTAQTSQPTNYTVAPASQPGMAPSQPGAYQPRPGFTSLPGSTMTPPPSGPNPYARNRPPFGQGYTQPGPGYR
T1 sequence (Q9UM73 whole entry, looked up): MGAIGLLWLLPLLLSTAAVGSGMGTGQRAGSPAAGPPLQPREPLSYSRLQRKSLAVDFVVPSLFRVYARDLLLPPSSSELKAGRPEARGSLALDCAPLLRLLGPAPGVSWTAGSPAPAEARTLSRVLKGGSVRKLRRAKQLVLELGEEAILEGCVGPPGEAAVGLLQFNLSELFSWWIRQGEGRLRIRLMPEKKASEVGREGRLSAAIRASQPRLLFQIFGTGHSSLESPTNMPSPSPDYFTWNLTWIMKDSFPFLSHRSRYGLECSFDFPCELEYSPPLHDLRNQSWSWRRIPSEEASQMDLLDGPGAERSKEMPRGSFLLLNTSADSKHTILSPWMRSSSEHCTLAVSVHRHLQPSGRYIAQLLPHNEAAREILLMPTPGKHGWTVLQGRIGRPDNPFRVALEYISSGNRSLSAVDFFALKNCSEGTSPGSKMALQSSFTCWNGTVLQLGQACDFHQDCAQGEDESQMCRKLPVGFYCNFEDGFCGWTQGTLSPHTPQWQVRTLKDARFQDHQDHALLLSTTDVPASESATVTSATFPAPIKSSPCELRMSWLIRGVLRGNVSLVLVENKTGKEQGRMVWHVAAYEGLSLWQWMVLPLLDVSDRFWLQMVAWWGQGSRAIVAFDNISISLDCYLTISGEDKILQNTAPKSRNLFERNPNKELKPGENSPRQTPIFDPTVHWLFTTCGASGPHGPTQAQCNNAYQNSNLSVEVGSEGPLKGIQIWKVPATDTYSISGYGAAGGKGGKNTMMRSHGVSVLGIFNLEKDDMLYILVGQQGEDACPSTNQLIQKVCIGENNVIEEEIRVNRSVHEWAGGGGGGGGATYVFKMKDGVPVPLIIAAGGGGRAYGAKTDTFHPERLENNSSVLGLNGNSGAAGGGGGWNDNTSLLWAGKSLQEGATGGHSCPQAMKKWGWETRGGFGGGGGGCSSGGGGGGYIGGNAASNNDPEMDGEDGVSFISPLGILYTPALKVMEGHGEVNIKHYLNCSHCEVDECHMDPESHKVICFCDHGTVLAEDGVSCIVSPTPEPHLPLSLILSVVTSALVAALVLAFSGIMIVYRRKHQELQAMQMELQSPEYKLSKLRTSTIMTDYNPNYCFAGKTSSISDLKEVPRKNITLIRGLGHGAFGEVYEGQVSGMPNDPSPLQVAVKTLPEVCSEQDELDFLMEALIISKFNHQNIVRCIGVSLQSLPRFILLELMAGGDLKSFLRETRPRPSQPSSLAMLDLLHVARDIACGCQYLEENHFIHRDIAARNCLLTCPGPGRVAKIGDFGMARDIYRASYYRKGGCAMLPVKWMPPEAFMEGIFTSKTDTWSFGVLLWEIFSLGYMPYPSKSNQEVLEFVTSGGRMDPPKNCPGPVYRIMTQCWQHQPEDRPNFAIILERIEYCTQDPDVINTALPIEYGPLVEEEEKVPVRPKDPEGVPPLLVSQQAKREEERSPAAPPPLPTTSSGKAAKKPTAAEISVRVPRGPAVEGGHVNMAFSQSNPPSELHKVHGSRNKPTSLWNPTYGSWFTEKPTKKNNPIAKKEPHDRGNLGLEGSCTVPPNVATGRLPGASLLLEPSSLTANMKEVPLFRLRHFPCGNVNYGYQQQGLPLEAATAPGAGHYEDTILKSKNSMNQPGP

MDA-MB-468 = test: Antitumor activity against human MDA-MB-468 cells xenografted in BALB/c nude mouse assessed as tumor growth inhibition at 30 mg/kg, iv administered once daily for 21 days; type: functional; conditions: MDA-MB-468, 504 h, time 21 day, read-out: TGI
[10] = biological target: Macrophage colony-stimulating factor 1 receptor (Homo sapiens) (UniProt P07333); test: Inhibition of FMS (unknown origin) assessed as residual activity at 1 uM relative to control
Chain of Macrophage colony-stimulating factor 1 receptor (Homo sapiens) (P07333 whole entry): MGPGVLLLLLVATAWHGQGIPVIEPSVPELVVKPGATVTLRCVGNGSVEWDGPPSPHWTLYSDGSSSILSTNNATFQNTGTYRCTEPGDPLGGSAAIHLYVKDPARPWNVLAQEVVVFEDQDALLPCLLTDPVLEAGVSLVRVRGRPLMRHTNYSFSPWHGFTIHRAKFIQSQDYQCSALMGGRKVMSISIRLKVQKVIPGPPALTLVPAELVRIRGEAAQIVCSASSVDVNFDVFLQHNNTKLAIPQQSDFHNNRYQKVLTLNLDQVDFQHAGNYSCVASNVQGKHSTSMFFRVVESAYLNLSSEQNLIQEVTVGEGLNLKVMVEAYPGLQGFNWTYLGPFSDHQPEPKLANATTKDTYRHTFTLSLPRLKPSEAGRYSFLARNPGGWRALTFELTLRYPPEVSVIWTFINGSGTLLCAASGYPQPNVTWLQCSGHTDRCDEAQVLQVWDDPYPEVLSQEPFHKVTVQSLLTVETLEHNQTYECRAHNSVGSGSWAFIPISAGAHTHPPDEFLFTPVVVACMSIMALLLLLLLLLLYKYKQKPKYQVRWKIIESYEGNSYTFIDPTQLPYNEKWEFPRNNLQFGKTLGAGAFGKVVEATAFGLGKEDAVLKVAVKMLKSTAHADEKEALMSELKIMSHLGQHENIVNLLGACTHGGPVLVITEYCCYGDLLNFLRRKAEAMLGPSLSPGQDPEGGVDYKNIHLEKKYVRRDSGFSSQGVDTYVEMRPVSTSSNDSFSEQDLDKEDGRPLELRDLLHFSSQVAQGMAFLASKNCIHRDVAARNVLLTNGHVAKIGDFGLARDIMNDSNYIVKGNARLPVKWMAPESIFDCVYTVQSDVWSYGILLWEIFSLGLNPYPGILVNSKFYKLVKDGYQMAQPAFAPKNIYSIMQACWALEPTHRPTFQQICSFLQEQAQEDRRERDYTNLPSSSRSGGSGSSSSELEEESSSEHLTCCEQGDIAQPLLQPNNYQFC

[11] = biological target: Activated CDC42 kinase 1 (Homo sapiens) (UniProt Q07912); test: Inhibition of ACK1 (unknown origin) assessed as residual activity at 1 uM relative to control
[12] = tested on: ALK tyrosine kinase receptor (Homo sapiens), Q9UM73 [F1174S]; test: Inhibition of ALK F1174S mutant (unknown origin) assessed as residual activity at 1 uM relative to control
[13] = Metabolic stability in human liver microsome assessed as parent compound remaining preincubated for 10 mins followed by NADPH addition and measured at 5 mins by LC-MS/MS analysis; type: ADME; conditions: liver microsomes, time 15 min, read-out: Stability
[14] = tested on: ALK tyrosine kinase receptor (Homo sapiens), Q9UM73 [F1174L]; test: Inhibition of ALK F1174L mutant (unknown origin) assessed as residual activity at 1 uM relative to control
[15] = tested on: Fibroblast growth factor receptor 2 (Homo sapiens), P21802 [K526E]; test: Inhibition of FGFR2 K526E mutant (unknown origin) assessed as residual activity at 1 uM relative to control
ALK-KIF5B (Homo sapiens) = ALK-KIF5B (Homo sapiens) (UniProt Q9UM73+P33176); test: Inhibition of ALK-KIF5B (unknown origin) assessed as residual activity at 1 uM relative to control; type: protein assay
[16] = Half life in Sprague-Dawley rat at 2 mg/kg, iv measured upto 24 hrs by LC-MS/MS analysis; type: ADME, organism-based; conditions: in vivo
[17] = tested on: ALK tyrosine kinase receptor (Homo sapiens), Q9UM73 [S1206R]; test: Inhibition of ALK S1206R mutant (unknown origin) assessed as residual activity at 1 uM relative to control
[18] = biological target: Calcium/calmodulin-dependent protein kinase type II subunit alpha (Homo sapiens) (UniProt Q9UQM7); test: Inhibition of CaMK2alpha (unknown origin) assessed as residual activity at 1 uM relative to control
Chain of Calcium/calmodulin-dependent protein kinase type II subunit alpha (Homo sapiens) (Q9UQM7 whole entry): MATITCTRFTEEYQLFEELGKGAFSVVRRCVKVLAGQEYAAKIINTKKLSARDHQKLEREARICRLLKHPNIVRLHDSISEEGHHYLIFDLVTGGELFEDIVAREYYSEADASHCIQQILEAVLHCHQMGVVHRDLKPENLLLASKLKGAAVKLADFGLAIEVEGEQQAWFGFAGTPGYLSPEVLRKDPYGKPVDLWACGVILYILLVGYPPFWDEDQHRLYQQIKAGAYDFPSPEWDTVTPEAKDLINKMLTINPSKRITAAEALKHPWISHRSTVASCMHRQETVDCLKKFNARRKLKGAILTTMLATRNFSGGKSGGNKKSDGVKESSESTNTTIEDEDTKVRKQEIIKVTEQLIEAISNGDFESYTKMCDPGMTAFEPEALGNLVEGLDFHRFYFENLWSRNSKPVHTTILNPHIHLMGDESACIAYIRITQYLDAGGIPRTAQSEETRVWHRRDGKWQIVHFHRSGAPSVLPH

[19] = Tmax in Sprague-Dawley rat at 10 mg/kg, po measured upto 24 hrs by LC-MS/MS analysis; type: ADME, organism-based; conditions: in vivo
[20] = biological target: Tyrosine-protein kinase Fer (Homo sapiens) (UniProt P16591); test: Inhibition of FER (unknown origin) assessed as residual activity at 1 uM relative to control
ALK-TFG (Homo sapiens) [21] = biological target: T1, ALK-TFG (Homo sapiens); test: Inhibition of ALK-TFG (unknown origin) assessed as residual activity at 1 uM relative to control; type: protein assay
ALK-KLC1 (Homo sapiens) = ALK-KLC1 (Homo sapiens) (UniProt Q9UM73+Q07866); test: Inhibition of ALK-KLC1 (unknown origin) assessed as residual activity at 1 uM relative to control; type: protein assay
[22] = biological target: Calcium/calmodulin-dependent protein kinase kinase 2 (Homo sapiens) (UniProt Q96RR4); test: Inhibition of CAMKK2 (unknown origin) assessed as residual activity at 1 uM relative to control
[23] = AUC (0 to t) in Sprague-Dawley rat at 2 mg/kg, iv measured upto 24 hrs by LC-MS/MS analysis; type: ADME, organism-based; parameters: dose 2 mg/kg, time < 24 hrs, route iv; conditions: in vivo
[24] = tested on: ALK tyrosine kinase receptor (Homo sapiens), Q9UM73 [L1196M]; test: Inhibition of ALK L1196M mutant (unknown origin) assessed as residual activity at 1 uM relative to control
[25] = tested on: ALK tyrosine kinase receptor (Homo sapiens), Q9UM73 [L1152R]; test: Inhibition of ALK L1152R mutant (unknown origin) assessed as residual activity at 1 uM relative to control
Chain of ALK tyrosine kinase receptor (Homo sapiens), Q9UM73 [L1152R] (Q9UM73 whole entry L1152R): as the sequence (Q9UM73 whole entry, looked up) above, with L1152R counted along it

CCc1cccc(CC)c1N1CCn2cc(-c3nc(Nc4ccc(N5CCN(C(C)=O)CC5)cc4OC)nc4[nH]ncc34)cc2C1=O
Activity (ALK-TPM1 (Homo sapiens)): < 10%
Activity [1]: < 10%
AUC(0-inf) [2]: 208 ng·h/mL
Activity [3]: < 10%
Activity [4]: < 10%
Activity [5]: < 10%
Activity [6]: < 10%
remaining at 0.25 h [7]: 64.6%
Activity [8]: < 10%
Activity (ALK-TFG (Homo sapiens) [9]): < 10%
inhibition in vivo at 30 mg/kg (MDA-MB-468): 21%
Activity [10]: < 10%
Activity [11]: < 10%
Activity [12]: < 10%
remaining at 5 min [13]: 82.7%
Activity [14]: < 10%
Activity [15]: < 10%
Activity (ALK-KIF5B (Homo sapiens)): < 10%
half-life [16]: 49.5 min
Activity [17]: < 10%
Activity [18]: < 10%
Tmax [19]: 20 min
Activity [20]: < 10%
Activity (ALK-TFG (Homo sapiens) [21]): < 10%
Activity (ALK-KLC1 (Homo sapiens)): < 10%
Activity [22]: < 10%
AUC(0-t) at 24 h [23]: 1050 ng·h/mL
Activity [24]: < 10%
Activity [25]: < 10%
